Results taken from patent US11040981B2, “Pyrrolotriazine compounds and methods of inhibiting TAM kinases” (Syros Pharmaceuticals, Inc., priority 2017, dated 2021).
Where a name gives a salt, the structure may show the parent alone.

What was measured:
MERTK = target: T1, MERTK (Homo sapiens, UniProt Q12866); assay: TR-FRET kinase activity assay, MERTK; format: biochemical; conditions: for IC50: TR-FRET activity assay, ATP at Km, 60 minutes, read-out: Mer IC50; for FLT3/Mer ratio (FLT3 IC50/Mer IC50): ratio of Mer to FLT3: FLT3 IC50/Mer IC50
T1 sequence (Q12866 21-999): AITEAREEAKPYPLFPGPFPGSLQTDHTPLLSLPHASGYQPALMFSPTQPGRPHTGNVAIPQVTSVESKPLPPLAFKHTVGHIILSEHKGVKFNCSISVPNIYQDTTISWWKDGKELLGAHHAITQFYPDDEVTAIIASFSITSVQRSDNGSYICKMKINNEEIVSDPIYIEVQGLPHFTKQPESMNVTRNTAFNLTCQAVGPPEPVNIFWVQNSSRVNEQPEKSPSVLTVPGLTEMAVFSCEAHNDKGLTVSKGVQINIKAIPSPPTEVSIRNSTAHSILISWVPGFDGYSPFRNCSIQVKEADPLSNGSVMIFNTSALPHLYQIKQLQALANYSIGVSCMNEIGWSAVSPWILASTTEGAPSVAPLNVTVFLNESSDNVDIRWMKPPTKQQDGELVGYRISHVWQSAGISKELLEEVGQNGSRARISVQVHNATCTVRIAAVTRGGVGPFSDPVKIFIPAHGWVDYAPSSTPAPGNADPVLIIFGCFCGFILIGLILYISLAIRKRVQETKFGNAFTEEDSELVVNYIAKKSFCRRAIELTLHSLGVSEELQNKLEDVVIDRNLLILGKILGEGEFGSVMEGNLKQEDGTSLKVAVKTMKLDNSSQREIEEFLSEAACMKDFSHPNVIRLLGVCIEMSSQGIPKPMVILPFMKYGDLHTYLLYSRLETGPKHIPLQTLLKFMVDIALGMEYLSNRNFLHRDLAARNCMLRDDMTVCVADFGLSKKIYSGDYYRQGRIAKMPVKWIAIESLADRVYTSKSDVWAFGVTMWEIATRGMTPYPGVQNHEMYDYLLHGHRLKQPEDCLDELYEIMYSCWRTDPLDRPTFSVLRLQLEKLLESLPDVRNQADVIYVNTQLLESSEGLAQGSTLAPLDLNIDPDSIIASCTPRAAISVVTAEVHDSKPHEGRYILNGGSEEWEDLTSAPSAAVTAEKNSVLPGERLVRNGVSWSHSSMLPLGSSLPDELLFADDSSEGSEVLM
Summary of the method: (§1)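 Compounds were tested against each kinase with ATP set at its own Km and a labelled tyrosine peptide substrate. Following one hour at room temperature in buffer containing 10 mM MgCl2 and 1 mM DTT, phosphorylated product was detected by Europium antibody TR-FRET after EDTA quench, and IC50 values were calculated.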

TYRO3 = target: T2, TYRO3 (Homo sapiens, UniProt Q06418); assay: TR-FRET kinase activity assay, TYRO3; format: biochemical; conditions: ATP at Km, 60 minutes
T2 sequence (Q06418 41-890): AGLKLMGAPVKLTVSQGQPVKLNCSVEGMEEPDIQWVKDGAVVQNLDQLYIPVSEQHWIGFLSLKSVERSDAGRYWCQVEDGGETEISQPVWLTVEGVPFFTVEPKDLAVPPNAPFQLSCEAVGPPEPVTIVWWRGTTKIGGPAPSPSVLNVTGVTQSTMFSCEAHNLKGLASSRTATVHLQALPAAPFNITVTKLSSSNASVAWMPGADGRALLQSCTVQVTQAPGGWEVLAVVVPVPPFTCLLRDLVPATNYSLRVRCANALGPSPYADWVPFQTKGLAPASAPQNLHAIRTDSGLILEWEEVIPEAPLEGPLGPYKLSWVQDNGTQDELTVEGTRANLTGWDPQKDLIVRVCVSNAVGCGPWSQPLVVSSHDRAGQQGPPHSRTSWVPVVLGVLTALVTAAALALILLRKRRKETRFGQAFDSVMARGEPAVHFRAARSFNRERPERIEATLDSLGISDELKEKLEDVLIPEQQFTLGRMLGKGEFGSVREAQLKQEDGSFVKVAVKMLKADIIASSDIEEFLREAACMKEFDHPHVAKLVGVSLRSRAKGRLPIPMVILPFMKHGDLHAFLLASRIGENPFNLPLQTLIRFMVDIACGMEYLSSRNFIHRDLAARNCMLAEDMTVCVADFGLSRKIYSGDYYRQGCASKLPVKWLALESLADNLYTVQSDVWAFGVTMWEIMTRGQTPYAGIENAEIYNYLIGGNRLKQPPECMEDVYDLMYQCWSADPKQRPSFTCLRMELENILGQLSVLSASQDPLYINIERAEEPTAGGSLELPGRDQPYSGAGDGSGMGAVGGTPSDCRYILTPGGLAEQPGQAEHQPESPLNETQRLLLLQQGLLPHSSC
Summary of the method: as §1

In the case of COC[C@H](C)Nc1ncc2c(-c3ccnc(N4CCNC(=O)C4)c3)cc([C@H]3CC[C@H](O)CC3)n2n1 [Compound 340], the IC50 (MERTK) is reported as ≤ 100 nM, the “FLT3/Mer ratio (FLT3 IC50/Mer IC50)” value (MERTK) is reported as “+++ (“+++” represents a ratio of >100)” and the IC50 (TYRO3) is reported as ≤ 100 nM.
COC[C@H](C)Nc1ncc2c(-c3ccnc(N4CCCC4)c3)cc([C@H]3CC[C@H](O)CC3)n2n1 [Compound 339] was tested, and the IC50 (MERTK) was ≤ 100 nM, the “FLT3/Mer ratio (FLT3 IC50/Mer IC50)” value (MERTK) was “+++ (“+++” represents a ratio of >100)” and the IC50 (TYRO3) was ≤ 100 nM.
COC[C@H](C)Nc1ncc2c(-c3cnn(CC4CNC(=O)C4)c3)cc([C@H]3CC[C@H](O)CC3)n2n1 (stereo partly drawn) [Compound 303] was tested, and the IC50 (MERTK) was ≤ 100 nM, the “FLT3/Mer ratio (FLT3 IC50/Mer IC50)” value (MERTK) was “+++ (“+++” represents a ratio of >100)” and the IC50 (TYRO3) was ≤ 100 nM.
CCCCC[C@H](C)Nc1ncc2c(C3CCNCC3)cc([C@H]3CC[C@H](O)CC3)n2n1 [Compound 116, (1S,4r)-4-(2-((S)-heptan-2-ylamino)-5-(piperidin-4-yl)pyrrolo[2,1-f][1,2,4]triazin-7-yl)cyclohexanol hydrochloride] was tested, and the IC50 (MERTK) was ≤ 100 nM, the “FLT3/Mer ratio (FLT3 IC50/Mer IC50)” value (MERTK) was “+++ (“+++” represents a ratio of >100)” and the IC50 (TYRO3) was ≤ 100 nM.
COC[C@H](C)Nc1ncc2c(-c3cnn(C4CC(S(C)(=O)=O)C4)c3)cc([C@H]3CC[C@H](O)CC3)n2n1 (stereo partly drawn) [Compound 287] was tested, and the IC50 (MERTK) was ≤ 100 nM, the “FLT3/Mer ratio (FLT3 IC50/Mer IC50)” value (MERTK) was “+++ (“+++” represents a ratio of >100)” and the IC50 (TYRO3) was ≤ 100 nM.
With Cc1cc(-c2cc([C@H]3CC[C@H](O)CC3)n3nc(N[C@@H](C)C(F)F)ncc23)ccn1 [Compound 309] the IC50 (MERTK) was ≤ 100 nM, the “FLT3/Mer ratio (FLT3 IC50/Mer IC50)” value (MERTK) was “+++ (“+++” represents a ratio of >100)” and the IC50 (TYRO3) was ≤ 100 nM.
With COC[C@H](C)Nc1ncc2c(-c3cnn(C[C@H]4CCC(=O)N4)c3)cc([C@H]3CC[C@H](O)CC3)n2n1 [Compound 324] the IC50 (MERTK) was ≤ 100 nM, the “FLT3/Mer ratio (FLT3 IC50/Mer IC50)” value (MERTK) was “+++ (“+++” represents a ratio of >100)” and the IC50 (TYRO3) was ≤ 100 nM.
In the case of COC[C@H](C)Nc1ncc2c(-c3ccc(CN4CCOCC4)cc3)cc([C@H]3CC[C@H](NS(C)(=O)=O)CC3)n2n1 [Compound 301], the IC50 (MERTK) is reported as ≤ 100 nM, the “FLT3/Mer ratio (FLT3 IC50/Mer IC50)” value (MERTK) is reported as “+++ (“+++” represents a ratio of >100)” and the IC50 (TYRO3) is reported as ≤ 100 nM.
For CCCCC[C@H](C)Nc1ncc2c(N3CCC(C(=O)O)CC3)cc([C@H]3CC[C@H](O)CC3)n2n1 [Compound 117], the IC50 (MERTK) was ≤ 100 nM, the “FLT3/Mer ratio (FLT3 IC50/Mer IC50)” value (MERTK) was “+++ (“+++” represents a ratio of >100)” and the IC50 (TYRO3) was 100 to 1000 nM.
With CNC(=O)c1cc(-c2cc([C@H]3CC[C@H](O)CC3)n3nc(N[C@@H](C)COC)ncc23)cc(C)n1 [Compound 335] the IC50 (MERTK) was ≤ 100 nM, the “FLT3/Mer ratio (FLT3 IC50/Mer IC50)” value (MERTK) was “+++ (“+++” represents a ratio of >100)” and the IC50 (TYRO3) was ≤ 100 nM.
With C[C@@H](CC(F)(F)F)Nc1ncc2c(-c3cnn([C@@H]4CCOC4)c3)cc([C@H]3CC[C@H](O)CC3)n2n1 [Compound 289] the IC50 (MERTK) was ≤ 100 nM, the “FLT3/Mer ratio (FLT3 IC50/Mer IC50)” value (MERTK) was “+ (“+” represents a ratio of >2.0 and <10)” and the IC50 (TYRO3) was ≤ 100 nM.
With Cc1nnc(Cn2cc(-c3cc([C@H]4CC[C@H](O)CC4)n4nc(N[C@@H](C)COC(F)F)ncc34)cn2)o1 [Compound 312] the IC50 (MERTK) was ≤ 100 nM, the “FLT3/Mer ratio (FLT3 IC50/Mer IC50)” value (MERTK) was “+++ (“+++” represents a ratio of >100)” and the IC50 (TYRO3) was ≤ 100 nM.
COC[C@H](C)Nc1ncc2c(-c3ccnc(C)c3)cc(C3CCC4(CC3)NC(=O)NC4=O)n2n1 (mixture of isomers) [Compound 325, (S)-8-(2-((1-methoxypropan-2-yl)amino)-5-(2-methylpyridin-4-yl)pyrrolo[2,1-f][1,2,4]triazin-7-yl)-1,3-diazaspiro[4.5]decane-2,4-dione] was tested, and the IC50 (MERTK) was ≤ 100 nM, the “FLT3/Mer ratio (FLT3 IC50/Mer IC50)” value (MERTK) was “+++ (“+++” represents a ratio of >100)” and the IC50 (TYRO3) was ≤ 100 nM.
